Reference: US20170003277A1 (priority 2015, published 2017)

Experiments:
[1] = tested on: THP-1 human monocyte cell line; assay: Microarray gene expression in THP-1 cells, Polimunol vs Copaxone, two repeats, 6 hours (Example 11); format: cell-based
[2] = tested on: THP-1 human monocyte cell line; assay: Pathway enrichment (DAVID) in THP-1 study: Copaxone vs mannitol and Probioglat vs GA; format: cell-based; conditions: Copaxone vs mannitol, 6 hours
[3] = In two prior THP-1 studies (intersection of both prior datasets)
[4] = Intersection of prior THP-1 studies and current study

Substance: glatiramer acetate [Copaxone®]
- Probesets significantly modulated by Copaxone relative to mannitol ([1]; 6 hours): 12,115
- IL1ORA expression relative to mannitol ([1]; FDR p<1.7e-21): significantly upregulated
- Probesets downregulated by Copaxone versus mannitol with FC ≦ −1.5, number ([1]; In current study): 28
- Probesets upregulated by Copaxone versus mannitol with FC ≧ 1.5, number ([1]; In current study): 156
- Probesets downregulated by Copaxone versus mannitol with FC ≦ −1.5, number [1, 3]: 15
- Probesets upregulated by Copaxone versus mannitol with FC ≧ 1.5, number [1, 3]: 149
- Probesets downregulated by Copaxone versus mannitol with FC ≦ −1.5, number [1, 4]: 9
- Probesets upregulated by Copaxone versus mannitol with FC ≧ 1.5, number [1, 4]: 94
- IL1RN expression relative to mannitol ([1]; all 3 present probesets: FDR p values<6.2e-21, 2.6e-17, 8.0e-14): strongly upregulated
- IL10 expression relative to mannitol ([1]; single probeset not present): not upregulated significantly
- Significant probesets in pairwise comparisons between three Copaxone lots ([1]; two comparisons / third comparison (adjusted p value 0.044)): zero and single
- Probesets significantly downregulated by Copaxone ([1]; vs mannitol, 6 hours): 6819
- Probesets significantly upregulated by Copaxone ([1]; vs mannitol, 6 hours): 5296
- Fold Enrichment: GO: 0003006~reproductive developmental process ([2]; top downregulated genes): 6.25
- Fold Enrichment: GO: 0007275~multicellular organismal development ([2]; top downregulated genes): 2.168
- Fold Enrichment: GO: 0009653~anatomical structure morphogenesis ([2]; top downregulated genes): 2.643
- Fold Enrichment: GO: 0030154~cell differentiation ([2]; top downregulated genes): 2.556
- Fold Enrichment: GO: 0032502~developmental process ([2]; top downregulated genes): 1.984
- Fold Enrichment: GO: 0048513~organ development ([2]; top downregulated genes): 2.76
- Fold Enrichment: GO: 0048731~system development ([2]; top downregulated genes): 2.396
- Fold Enrichment: GO: 0048856~anatomical structure development ([2]; top downregulated genes): 2.165
- Fold Enrichment: GO: 0048869~cellular developmental process ([2]; top downregulated genes): 2.411
- Fold Enrichment: G0: 0001568~blood vessel development ([2]; top upregulated genes): 3.472
- Fold Enrichment: G0: 0002819~regulation of adaptive immune response ([2]; top upregulated genes): 7.067
- Fold Enrichment: G0: 0030154~cell differentiation ([2]; top upregulated genes): 1.794
- Fold Enrichment: GO: 0000267~cell fraction ([2]; top upregulated genes): 1.993
- Fold Enrichment: GO: 0001501~skeletal system development ([2]; top upregulated genes): 3.144
- Fold Enrichment: GO: 0001525~angiogenesis ([2]; top upregulated genes): 4.224
- Fold Enrichment: GO: 0001608~nucleotide receptor activity, G-protein coupled ([2]; top upregulated genes): 13.87
- Fold Enrichment: GO: 0001614~purinergic nucleotide receptor ([2]; top upregulated genes): 12.55
- Fold Enrichment: GO: 001816~cytokine production ([2]; top upregulated genes): 7.526
- Fold Enrichment: GO: 0001871~pattern binding ([2]; top upregulated genes): 5.244
- Fold Enrichment: GO: 0001944~vasculature development ([2]; top upregulated genes): 3.428
- Fold Enrichment: GO: 0002376~immune system process ([2]; top upregulated genes): 2.852
- Fold Enrichment: GO: 0002682~regulation of immune system process ([2]; top upregulated genes): 3.763
- Fold Enrichment: GO: 0002683~negative regulation of immune ([2]; top upregulated genes): 5.682
- Fold Enrichment: GO: 0002684~positive regulation of immune system process ([2]; top upregulated genes): 4.025
- Fold Enrichment: GO: 0002694~regulation of leukocyte activation ([2]; top upregulated genes): 4.14
- Fold Enrichment: GO: 0002697~regulation of immune effector process ([2]; top upregulated genes): 6.009
- Fold Enrichment: GO: 0002698~negative regulation of immune effector process ([2]; top upregulated genes): 15.05
- Fold Enrichment: GO: 0002698~positive regulation of response to external stimulus ([2]; top upregulated genes): 6.536
- Fold Enrichment: GO: 0002703~regulation of leukocyte mediated immunity ([2]; top upregulated genes): 7.43
- Fold Enrichment: GO: 0002822~regulation of adaptive immune response based on somatic recombination of immune receptors built from immunoglobulin superfamily domains ([2]; top upregulated genes): 7.244
- Fold Enrichment: GO: 0004222~metalloendopeptidase activity ([2]; top upregulated genes): 6.148
- Fold Enrichment: GO: 0004871~signal transducer activity ([2]; top upregulated genes): 2.537
- Fold Enrichment: GO: 0004872~receptor activity ([2]; top upregulated genes): 2.976
- Fold Enrichment: GO: 0004888~transmembrane receptor activity ([2]; top upregulated genes): 3.768
- Fold Enrichment: GO: 0004930~G-protein coupled receptor activity ([2]; top upregulated genes): 4.293
- Fold Enrichment: GO: 0005576~extracellular region ([2]; top upregulated genes): 2.824
- Fold Enrichment: GO: 0005578~proteinaceous extracellular matrix ([2]; top upregulated genes): 5.31
- Fold Enrichment: GO: 0005615~extracellular space ([2]; top upregulated genes): 3.371
- Fold Enrichment: GO: 0005624~membrane fraction ([2]; top upregulated genes): 2.128
- Fold Enrichment: GO: 0005626~insoluble friction ([2]; top upregulated genes): 2.12
- Fold Enrichment: GO: 0005886~plasma membrane ([2]; top upregulated genes): 2.42
- Fold Enrichment: GO: 0005887~integral to plasma membrane ([2]; top upregulated genes): 3.25
- Fold Enrichment: GO: 0006928~cell motion ([2]; top upregulated genes): 2.469
- Fold Enrichment: GO: 0006935~chemotaxis ([2]; top upregulated genes): 4.651
- Fold Enrichment: GO: 0006950~response to stress ([2]; top upregulated genes): 1.897
- Fold Enrichment: GO: 0006952~defense response ([2]; top upregulated genes): 3.418
- Fold Enrichment: GO: 0006954~inflammatory response ([2]; top upregulated genes): 4.475
- Fold Enrichment: GO: 0006955~immune response ([2]; top upregulated genes): 3.57
- Fold Enrichment: GO: 0007155~cell adhesion ([2]; top upregulated genes): 2.948
- Fold Enrichment: GO: 0007165~signal transduction ([2]; top upregulated genes): 1.567
- Fold Enrichment: GO: 0007166~cell surface receptor linked signal transduction ([2]; top upregulated genes): 2.246
- Fold Enrichment: GO: 0007186~G-protein coupled receptor protein signaling pathway ([2]; top upregulated genes): 2.726
- Fold Enrichment: GO: 0007275~multicellular organismal development ([2]; top upregulated genes): 1.742
- Fold Enrichment: GO: 0007610~behavior ([2]; top upregulated genes): 2.76
- Fold Enrichment: GO: 0007626~locomotory behavior ([2]; top upregulated genes): 4.081
- Fold Enrichment: GO: 0009605~response to external stimulus ([2]; top upregulated genes): 3.127
- Fold Enrichment: GO: 0009607~response to biotic stimulus ([2]; top upregulated genes): 3.376
